Legend:
RAW 264.7 cell line [1] = assay: Nitric oxide (NO) production assay in LPS-treated RAW 264.7 (Griess reagent); type: cell-based, mouse; settings: for NO production, combined treatment / NO production compared to the control / NO production rate compared with control: LPS 100 ng/mL; for NO production compared to the control / NO production rate compared with control: independent treatment; for NO production rate compared with control: 10 μg/mL; for inhibitory effect on NO production (in words): LPS-induced RAW 264.7, independent treatment
Experimental: (§1) RAW 264.7 cell line, a mouse macrophage cell line was purchased from KCLB (Korean Cell Line Bank, Korea). After RAW 264.7 was added with 10% fetal bovine serum (FBS, GIBCO, USA) and 1% antibiotics-antimycotic (GIBCO, USA), the cell was subcultured in Dulbecco's modified Eagle's medium (DMEM, WELGENE, Korea) in a 37° C., 5% CO2 incubator (Thermo Fisher Inc., USA).
After RAW 264.7 cell line was independently treated with any one of the flavonoid componentsor Sorbus commixta extract, and was combinedly treated with any one of the flavonoid components and the Sorbus commixta extract, an evaluation of Nitric Oxide production (NO assay) was conducted to identify effects on NO secretion induced by LPS.
At this time, RAW 264.7 cells were seeded at 1×10^5 cells/well in 96-well plates and cultured in a 37° C., 5% CO2 incubator for 24 hours. Each cell was pretreated with samples by concentration (pinocembrin, quercetin, kaempferol, glangin, and chrysin at concentrations of 1, 2.5, 5, and 10 μg/mL, caffeic acid and p-Coumaric acid at concentrations of 2.5, 5, 10, and 25 μg/mL, and Sorbus commixta ethanol extract at concentrations of 25, 50, 100, and 250 ppm), respectively, and then the cells were treated with LPS (Sigma-Aldrich Inc, USA) to a final concentration of 100 ng/mL to induce the inflammatory response for 20 hours. After the induction of the inflammatory response, a 100 μL supernatant of a 96-well plate was added with a 100 μL Griess reagent (Sigma-Aldrich Inc., USA) at a concentration of 40 mg/mL (in water), and reacted in the dark for 15 minutes, and the optical density was measured at 540 nm using a Tecan infinite 200 microplate reader (Tecan Trading AG, Switzerland). A quantitative line was drawn using Sodium nitrite (Sigma-Aldrich Inc., USA), and each value of optical density was substituted to the quantitative line to determine the amount of produced Nitric Oxide (NO).
In the inflammatory response of macrophages induced by LPS treatment, the treatment effects of any one of the flavonoid components or Sorbus commixta ethanol extract on NO production were determined.

[2] = system: RBL-2H3 basophilic cell line; assay: beta-Hexosaminidase release assay (degranulation by anti-DNP-IgE / DNP-BSA); type: cell-based, Rat; settings: for degree of degranulation of RBL-2H3 cells (in words) / beta-Hexosaminidase released compared to the positive control: independent treatment; for beta-Hexosaminidase released compared to the positive control: 1 hour pretreatment
Experimental: Effects of quercetin, kaempferol, chrysin, and Sorbus commixta ethanolic extract on allergic response were determined by measuring the release of beta-Hexosaminidase through degranulation caused by the antibody-antigen binding in the RBL-2H3 basophilic cells. The RBL-2H3 basophilic cell line of Rat was purchased from ATCC (American Type Culture Collection, USA), and then it was added with a 10% fetal bovine serum and a 1% antibiotics-antimycotic in Dulbecco's modified Eagle's medium, and was subcultured in a 37° C., 5% CO2 incubator. A beta-Hexosaminidase release assay was carried out to figure out effects of independent treatment of any one of the flavonoid components or the Sorbus commixta ethanolic extract, and combined treatment of any one of the flavonoid components (quercetin, kaempferol, chrysin) with Sorbus commixta ethanolic extract on the release of beta-Hexosaminidase through the degranulation of RBL-2H3 basophilic cell line. The RBL-2H3 cells were seeded at 8×10^4 cells/well in the 96 well plates, and stabilized in a 37° C., 5% CO2 incubator for 3 hours, then treated with anti-DNP-IgE (Sigma-Aldrich Inc., USA) to a final concentration of 250 ng/mL for cell sensitization, and incubated for 24 hours. After culturing, the supernatant liquid was removed and washed twice with Siraganian buffer (NaCl 119 mM, KCl 5 mM, Glucose 5.6 mM, PIPES 25 mM, MgCl2, 0.4 mM, CaCl2 1 mM, BSA 0.1%, pH 7.2, Biosolution, Korea), and concentration-specific samples dissolved in Siraganian buffer were pretreated into the cells for 1 hour. After the pretreatment, the final concentration of DNP-BSA (Sigma-Aldrich Inc., USA) was treated to be at 150 ng/mL, and cultured for 1 hour to induce degranulation. After degranulation induction, 80 μL of supernatant and 20 μL of 10 mM 4-Nitrophenyl N-acetyl-β-D-glucosaminide (in 0.1 M citrate buffer, pH 4.5, Sigma-Aldrich Inc., USA) were reacted in the 96 well plate for 4 hours at a 37° C. incubator. After 4 hours, the reaction was terminated by adding 100 μL of 0.5 M sodium carbonate, and the optical density was measured at 405 nm using a Tecan infinite 200 microplate reader. First, RBL-2H3 cells' degranulation induced by antibody-antigen binding was determined when independently treated with any one of the flavonoid components or Sorbus commixta ethanolic extract. RBL-2H3 cells were sensitized with antibodies for one day, pretreated with different concentration levels of 3 selected flavonoid components, or Sorbus commixta ethanol extract for one hour, followed by additionally being treated with antigens. A group treated with neither the extract nor the antigen was a negative control, and a group independently treated with ethanol as the solvent for the sample and induced for degranulation only was a positive control. When RBL-2H3 cell degranulation is induced by antibody-antigen binding, beta-Hexosaminidase, an indicator of early response is released. On top of that, a substrate addition (P-NAG) leads to the degradation of the substrate and the suspension of the degradation reaction, resulting in a color change. In that case, the amount of beta-hexosaminidase may be determined by measuring the optical density, which may it possible to compare the degree of induced inhibition or induced activation of degranulation. The changes in the amount of beta-Hexosaminidase released by the combined treatment of the Sorbus commixta ethanolic extract with any one of the three selected active ingredients of the flavonoid components were intended to be determined. A group treated with neither the extract nor the antigen was a negative control, and a group independently treated with ethanol as the solvent for the sample and induced for degranulation only was a positive control.

RAW 264.7 cell line [3] = assay: MTT cell viability assay, RAW 264.7; type: cell-based; settings: mouse, 24 h, 10 μg/mL
Experimental: as §1
A cell viability rate was analyzed by carrying out an MTT assay in order to determine the toxicity of the flavonoid components and Sorbus commixta ethanolic extract on the cell line treatment. The RAW 264.7 cell line was seeded 5×10^4 cells/well in a 96 well plate, and cultured in a 37° C., 5% CO2 incubator. After the culture, the flavonoid components and Sorbus commixta ethanolic extract were treated and additionally treated for the next 24 hours. After the additional culture, a 0.1 mg/mL MTT solution (Sigma-Aldrich Inc., USA) was dispensed in each well, the cells were cultured for 4 hours before the supernatant was removed. The resulting formazan was dissolved by seeding 100 μL of DMSO (Sigma-Aldrich Inc., USA) into each well, followed by orbital shaking (87.9 rpm) for 15 minutes, and optical density was measured at 540 nm using a Tecan infinite 200 microplate reader. The measured values of optical density were described as a percentage by substituting into the equation below. […]

[4] = flavonoid 1 μg/mL (first of series) combined with Sorbus commixta ethanol extract
[5] = flavonoid 2.5 μg/mL (second of series) combined with Sorbus commixta ethanol extract
[6] = flavonoid 5 μg/mL (third of series) combined with Sorbus commixta ethanol extract
[7] = flavonoid 10 μg/mL (fourth of series) combined with Sorbus commixta ethanol extract
[8] = 1 μg/mL (first of series 1, 2.5, 5, 10 μg/mL)

In the case of O=c1c(O)c(-c2ccc(O)cc2)oc2cc(O)cc(O)c12 [kaempferol], the “NO production, combined treatment” value (RAW 264.7 cell line [1]; [4]) is reported as 75%, the “NO production, combined treatment” value (RAW 264.7 cell line [1]; [5]) is reported as 71% and the “NO production, combined treatment” value (RAW 264.7 cell line [1]; [6]) is reported as 60%. The “NO production, combined treatment” value (RAW 264.7 cell line [1]; [7]) was 39%, the “NO production compared to the control” value (RAW 264.7 cell line [1]; [8]) was 92% and the “NO production compared to the control” value (RAW 264.7 cell line [1]; 2.5 μg/mL (second of series)) was 85%. The “NO production compared to the control” value (RAW 264.7 cell line [1]; 5 μg/mL (third of series)) was 66%, the “NO production rate compared with control” value (RAW 264.7 cell line [1]) was 42% and the “inhibitory effect on NO production (in words)” value (RAW 264.7 cell line [1]) was “highest inhibitory effect on NO production”. For the same molecule, the “production rate of beta-Hexosaminidase compared to the control group” value (shortened to “production rate … compared to the control group”) ([2]; 2.5 μg/mL mixed with 25 ppm of Sorbus commixta ethanol extract) was 79.8%, the “degree of degranulation of RBL-2H3 cells (in words)” value [2] was “decreased the degree of degranulation” and the “beta-Hexosaminidase released compared to the positive control” value ([2]; 0.5 μg/mL) was 85%.

In the case of “p-coumaric acid (4-Hydroxycinnamic acid)”, the “NO production rate compared with control” value (RAW 264.7 cell line [1]) is reported as 90%.

In the case of O=c1c(O)c(-c2ccc(O)c(O)c2)oc2cc(O)cc(O)c12 [quercetin], the “NO production, combined treatment” value (RAW 264.7 cell line [1]; [4]) is reported as 78%, the “NO production, combined treatment” value (RAW 264.7 cell line [1]; [5]) is reported as 70% and the “NO production, combined treatment” value (RAW 264.7 cell line [1]; [6]) is reported as 55%. The “NO production, combined treatment” value (RAW 264.7 cell line [1]; [7]) was 39%, the “NO production compared to the control” value (RAW 264.7 cell line [1]; [8]) was 97% and the “NO production compared to the control” value (RAW 264.7 cell line [1]; 2.5 μg/mL (second of series)) was 81%. The “NO production compared to the control” value (RAW 264.7 cell line [1]; 5 μg/mL (third of series)) was 63%, the “NO production rate compared with control” value (RAW 264.7 cell line [1]) was 41% and the “inhibitory effect on NO production (in words)” value (RAW 264.7 cell line [1]) was “highest inhibitory effect on NO production”. For the same molecule, the “production rate … compared to the control group” value ([2]; 0.5 μg/mL mixed with 25 ppm of Sorbus commixta ethanol extract) was 86.8%, the “degree of degranulation of RBL-2H3 cells (in words)” value [2] was “decreased the degree of degranulation” and the “beta-Hexosaminidase released compared to the positive control” value ([2]; 0.5 μg/mL) was 64%.

In the case of O=C1C[C@@H](c2ccccc2)Oc2cc(O)cc(O)c21 [pinocembrin], the cell viability rate (RAW 264.7 cell line [3]) is reported as “greater than 80%” and the “NO production rate compared with control” value (RAW 264.7 cell line [1]) is reported as 90%.

O=c1c(O)c(-c2ccccc2)oc2cc(O)cc(O)c12 [galangin] was tested, and the cell viability rate (RAW 264.7 cell line [3]) was “greater than 80%” and the “NO production rate compared with control” value (RAW 264.7 cell line [1]) was 82%.

With O=C(O)/C=C/c1ccc(O)c(O)c1 [caffeic acid] the “NO production rate compared with control” value (RAW 264.7 cell line [1]) was 97%.

For O=c1cc(-c2ccccc2)oc2cc(O)cc(O)c12 [chrysin], the “NO production, combined treatment” value (RAW 264.7 cell line [1]; [4]) was 72%, the “NO production, combined treatment” value (RAW 264.7 cell line [1]; [5]) was 55% and the “NO production, combined treatment” value (RAW 264.7 cell line [1]; [6]) was 38%. For the same molecule, the “NO production, combined treatment” value (RAW 264.7 cell line [1]; [7]) was 9%, the “NO production compared to the control” value (RAW 264.7 cell line [1]; [8]) was 89% and the “NO production compared to the control” value (RAW 264.7 cell line [1]; 2.5 μg/mL (second of series)) was 74%. For the same molecule, the “NO production compared to the control” value (RAW 264.7 cell line [1]; 5 μg/mL (third of series)) was 43%, the “NO production rate compared with control” value (RAW 264.7 cell line [1]) was 10% and the “production rate … compared to the control group” value ([2]; 1 μg/mL mixed with 25 ppm of Sorbus commixta ethanol extract) was 95.9%. The “beta-Hexosaminidase released compared to the positive control” value ([2]; 1 μg/mL) was 83%.
